Measurements as given in patent US9737502B2, “Calebin A for hepatic steatosis” (SAMI LABS LIMITED, priority 2011, dated 2017).
Marks after values point to notes of the source that are not given here.

Legend:
[1] = system: Fully differentiated adipocytes; experiment: Lipolysis (glycerol release) in fully differentiated adipocytes; format: cell-based, Mouse; details: fully differentiated adipocytes (8 days)
Description: Fully differentiated adipocytes (8 days) previously untreated with Calebin A as described in procedural steps outlined in Example IV were treated with Calebin A at concentrations of 5-30 μM. Lipolysis was linked to the breakdown of lipids into glycerol that was released into the cell culture medium and detected thereof. […] Thus, in another most preferred embodiment, the present invention relates to a method of inducing lipolysis in mammalian adipocytes, said method comprising the step of treating mammalian adipocytes with varying concentrations of Calebin A to bring about the effect of dose dependant lipolysis in said adipocytes. […] Epididymal fat pads were dissected and fixed in 10% buffered formalin for at least 24 hours, then dehydrated with a sequence of ethanol solutions and processed for embedding in paraffin. Sections of 5-6 μm in thickness were cut, de-paraffinized, rehydrated, stained with haematoxylin & eosin (H&E) and subjected to photomicroscopic assessment. Adipocyte size was determined using a Nikon light microscope (Japan) equipped with an ocular micrometer at 200× magnification in 10 random fields per section. […]

[2] = Study 2: body weight and liver weight in high fat diet induced obese mice; format: in vivo, C57 mice; details: for LIVER WEIGHT: male group, Day 57, High fat diet Control 1.60 ± 0.35
Text: The animals were fed ad libitum with AMRUT Laboratory Animal Feed manufactured by Pranav Agro Industries Limited, Sangli, Maharastra throughout the acclimatization. Open Source Diet D12450B diet (with 10 kcal % Fat) and Open Source Diet D12492 High fat diet (with 60 kcal % Fat) manufactured by Research Diet Inc, USA procured from Indus Marketing, Hyderabad, Andhra Pradesh, INDIA was used for induction of obesity and the main study.
The animals were divided into 5 groups viz., Group 1, 2, 3, 4 and 5 consisting of 10 animals (5 male and 5 female) each.
The G1 Control group animals were fed with normal control diet feed D12450B containing 10 kcal % fat and the G2 to G5 group animals were fed with high fat diet feed D12492 containing 60 kcal % fat during the induction of obesity and during main study.
The main study was started after the induction of obesity. The 3 doses of Calebin A was administered to animals from Day 29 daily consecutively for a period of 28 days. The feeding of diets continued in the main study in a similar way as performed in induction of obesity. The G1 Control and G2 High fat diet control group animals were administered with 0.5% CMC (Carboxy Methyl Cellulose) while other group animals received test item from Day 29 to Day 56 of the study period. The dose volume of administration was maintained according to the weekly body weight of individual animals. The total duration of the study was 61 days (5 days Acclimatization period+28 days Induction of obesity+28 days Main study).
Individual animal body weights were recorded on the day of receipt on Day 1 and weekly (±1 day) thereafter during the study period.
Further, after completion of the study period (Day 57) the animals were humanely sacrificed by exposure to excess CO2 in gas chamber and organ weights were noted. The brain, thymus, liver, adrenals, kidneys (paired), spleen, heart and ovaries/testes (paired) from all animals were trimmed off any adherent tissue, as appropriate and weighed wet as soon as possible to avoid drying. While in general, there was no statistically significant difference in organ weights in males and females, organ specific improvements in weight, example for liver in the male group was observable (See TABLE X). […] It may be noted that Behnke, A. R. 1953. Lean body mass. A.M.A. Arch. Int. Med. 91, 585 indicates liver as an index of lean body mass promotion and H. F. Kraybill et al, J ANIM SCI 1954, 13:548-555 indicate that other visceral organs may also be equally predictive of lean body mass promotion. It is quite possible that statistical significance in terms of sustainable increase in organ weights without indications of toxicity may be achieved with a larger sample size (more number of tested animals) over extended testing periods.

## COc1cc(/C=C/C(=O)COC(=O)/C=C/c2ccc(O)c(OC)c2)ccc1O [Calebin A]
[1]; 30 μM
  release of glycerol into the medium (lipolysis): Glycerol was detected
[1]; 5-20 μM
  release of glycerol into the medium (lipolysis): did not bring about the release of glycerol
[2]; females, G3 5 mg/kg + High fat diet, Day 1 (obesity induction, before dosing)
  BODY WEIGHT: 22.36 ± 0.65 grams
[2]; females, G3 5 mg/kg + High fat diet, Day 8 (obesity induction, before dosing)
  BODY WEIGHT: 23.18 ± 0.79 grams
[2]; females, G3 5 mg/kg + High fat diet, Day 15 (obesity induction, before dosing)
  BODY WEIGHT: 24.36 ± 0.87 grams
[2]; females, G3 5 mg/kg + High fat diet, Day 22 (obesity induction, before dosing)
  BODY WEIGHT: 25.66 ± 0.48 grams
[2]; females, G3 5 mg/kg + High fat diet, Day 29 (start of daily dosing)
  BODY WEIGHT: 27.40*^a ± grams
[2]; females, G3 5 mg/kg + High fat diet, Day 36 (dosing Day 29-56)
  BODY WEIGHT: 28.18**^a ± grams
[2]; females, G3 5 mg/kg + High fat diet, Day 43 (dosing Day 29-56)
  BODY WEIGHT: 28.46*^a,**^b ± grams
[2]; females, G3 5 mg/kg + High fat diet, Day 50 (dosing Day 29-56)
  BODY WEIGHT: 28.20***^b ± grams
[2]; females, G3 5 mg/kg + High fat diet, Day 56 (dosing Day 29-56)
  BODY WEIGHT: 28.12***^b ± grams
[2]; females, G4 10 mg/kg + High fat diet, Day 1 (obesity induction, before dosing)
  BODY WEIGHT: 23.16 ± 0.99 grams
[2]; females, G4 10 mg/kg + High fat diet, Day 8 (obesity induction, before dosing)
  BODY WEIGHT: 24.16 ± 1.29 grams
[2]; females, G4 10 mg/kg + High fat diet, Day 15 (obesity induction, before dosing)
  BODY WEIGHT: 25.62 ± 1.26 grams
[2]; females, G4 10 mg/kg + High fat diet, Day 22 (obesity induction, before dosing)
  BODY WEIGHT: 26.76 ± 1.27 grams
[2]; females, G4 10 mg/kg + High fat diet, Day 29 (start of daily dosing)
  BODY WEIGHT: 28.46***^a ± grams
[2]; females, G4 10 mg/kg + High fat diet, Day 36 (dosing Day 29-56)
  BODY WEIGHT: 28.64***^a ± grams
[2]; females, G4 10 mg/kg + High fat diet, Day 43 (dosing Day 29-56)
  BODY WEIGHT: 28.16*^a,***^b ± grams
[2]; females, G4 10 mg/kg + High fat diet, Day 50 (dosing Day 29-56)
  BODY WEIGHT: 27.54***^b ± grams
[2]; females, G4 10 mg/kg + High fat diet, Day 56 (dosing Day 29-56)
  BODY WEIGHT: 27.04***^b ± grams
[2]; females, G5 20 mg/kg + High fat diet, Day 1 (obesity induction, before dosing)
  BODY WEIGHT: 23.52 ± 1.10 grams
[2]; females, G5 20 mg/kg + High fat diet, Day 8 (obesity induction, before dosing)
  BODY WEIGHT: 24.66 ± 1.24 grams
[2]; females, G5 20 mg/kg + High fat diet, Day 15 (obesity induction, before dosing)
  BODY WEIGHT: 26.26 ^a ± 1.05 ^ grams
[2]; females, G5 20 mg/kg + High fat diet, Day 22 (obesity induction, before dosing)
  BODY WEIGHT: 27.26 ^a ± 1.25 ^ grams
[2]; females, G5 20 mg/kg + High fat diet, Day 29 (start of daily dosing)
  BODY WEIGHT: 28.74***^a ± grams
[2]; females, G5 20 mg/kg + High fat diet, Day 36 (dosing Day 29-56)
  BODY WEIGHT: 28.40**^a ± grams
[2]; females, G5 20 mg/kg + High fat diet, Day 43 (dosing Day 29-56)
  BODY WEIGHT: 27.80***^b ± grams
[2]; females, G5 20 mg/kg + High fat diet, Day 50 (dosing Day 29-56)
  BODY WEIGHT: 27.44***^b ± grams
[2]; females, G5 20 mg/kg + High fat diet, Day 56 (dosing Day 29-56)
  BODY WEIGHT: 27.10***^b ± grams
[2]; male and female C57 animals, 5, 10 and 20 mg/kg body weight
  effect on body weights of high fat diet induced obese animals: had an effect in decreasing the body weights
[2]; G3 5 mg/kg + High fat diet
  LIVER WEIGHT: 1.41 ± 0.17 g
[2]; G4 10 mg/kg + High fat diet
  LIVER WEIGHT: 1.25 ± 0.17 g
[2]; G5 20 mg/kg + High fat diet
  LIVER WEIGHT: 1.79 ± 0.19 g
[2]; males, G3 5 mg/kg + High fat diet, Day 1 (obesity induction, before dosing)
  BODY WEIGHT: 25.02 ± 1.45 grams
[2]; males, G3 5 mg/kg + High fat diet, Day 8 (obesity induction, before dosing)
  BODY WEIGHT: 25.78 ± 1.14 grams
[2]; males, G3 5 mg/kg + High fat diet, Day 15 (obesity induction, before dosing)
  BODY WEIGHT: 27.68 ± 0.95 grams
[2]; males, G3 5 mg/kg + High fat diet, Day 22 (obesity induction, before dosing)
  BODY WEIGHT: 29.98**^a ± 1.03 grams
[2]; males, G3 5 mg/kg + High fat diet, Day 29 (start of daily dosing)
  BODY WEIGHT: 30.92**^a ± grams
[2]; males, G3 5 mg/kg + High fat diet, Day 36 (dosing Day 29-56)
  BODY WEIGHT: 31.70*^a ± grams
[2]; males, G3 5 mg/kg + High fat diet, Day 43 (dosing Day 29-56)
  BODY WEIGHT: 30.84***^b ± grams
[2]; males, G3 5 mg/kg + High fat diet, Day 50 (dosing Day 29-56)
  BODY WEIGHT: 30.04***^b ± grams
[2]; males, G3 5 mg/kg + High fat diet, Day 56 (dosing Day 29-56)
  BODY WEIGHT: 29.98***^b ± grams
[2]; males, G4 10 mg/kg + High fat diet, Day 1 (obesity induction, before dosing)
  BODY WEIGHT: 25.28 ± 0.88 grams
[2]; males, G4 10 mg/kg + High fat diet, Day 8 (obesity induction, before dosing)
  BODY WEIGHT: 25.82 ± 0.91 grams
[2]; males, G4 10 mg/kg + High fat diet, Day 15 (obesity induction, before dosing)
  BODY WEIGHT: 27.58 ± 0.65 grams
[2]; males, G4 10 mg/kg + High fat diet, Day 22 (obesity induction, before dosing)
  BODY WEIGHT: 29.92**^a ± 0.97 grams
[2]; males, G4 10 mg/kg + High fat diet, Day 29 (start of daily dosing)
  BODY WEIGHT: 31.02**^a ± grams
[2]; males, G4 10 mg/kg + High fat diet, Day 36 (dosing Day 29-56)
  BODY WEIGHT: 31.06*^b ± grams
[2]; males, G4 10 mg/kg + High fat diet, Day 43 (dosing Day 29-56)
  BODY WEIGHT: 29.80***^b ± grams
[2]; males, G4 10 mg/kg + High fat diet, Day 50 (dosing Day 29-56)
  BODY WEIGHT: 28.98***^b ± grams
[2]; males, G4 10 mg/kg + High fat diet, Day 56 (dosing Day 29-56)
  BODY WEIGHT: 28.62***^b ± grams
[2]; males, G5 20 mg/kg + High fat diet, Day 1 (obesity induction, before dosing)
  BODY WEIGHT: 25.88 ± 1.25 grams
[2]; males, G5 20 mg/kg + High fat diet, Day 8 (obesity induction, before dosing)
  BODY WEIGHT: 26.66 ± 1.73 grams
[2]; males, G5 20 mg/kg + High fat diet, Day 15 (obesity induction, before dosing)
  BODY WEIGHT: 28.94*^a ± 1.59^ grams
[2]; males, G5 20 mg/kg + High fat diet, Day 22 (obesity induction, before dosing)
  BODY WEIGHT: 30.64**^a ± 1.16 grams
[2]; males, G5 20 mg/kg + High fat diet, Day 29 (start of daily dosing)
  BODY WEIGHT: 31.86***^a ± grams
[2]; males, G5 20 mg/kg + High fat diet, Day 36 (dosing Day 29-56)
  BODY WEIGHT: 31.48*^b ± grams
[2]; males, G5 20 mg/kg + High fat diet, Day 43 (dosing Day 29-56)
  BODY WEIGHT: 29.12***^b ± grams
[2]; males, G5 20 mg/kg + High fat diet, Day 50 (dosing Day 29-56)
  BODY WEIGHT: 27.74***^b ± grams
[2]; males, G5 20 mg/kg + High fat diet, Day 56 (dosing Day 29-56)
  BODY WEIGHT: 27.54***^b ± grams
